In patent US20190100549A1, “FLAVONOIDE-TYPE COMPOUNDS BEARING AN O-RHAMNOSYL RESIDUE” (Universitaet Hamburg, priority 2016, published 2019):
Values joined by “and” are separate entries in the source; they are usually repeats but may differ in a detail not shown here. Identical values can stand only once.

What was measured:
Format in all cases: cell-based
[1] = system: normal human epidermal keratinocytes (NHEK); assay: Cytotoxicity on NHEK monolayer cultures (MTT reduction assay and morphological observation); conditions: for Viability (%): single values
Method: To determine the cytotoxicity of flavonoid-5-O-α-L-rhamnosides tests were performed versus their aglycon derivatives in cell monolayer cultures. For this purpose concentrations ranging from 1 μM to 250 μM were chosen. The viability of normal human epidermal keratinocytes (NHEK) was twice evaluated by a MTT reduction assay and morphological observation with a microscope. NHEK were grown at 37° C. and 5% CO2 aeration in Keratinocyte-SFM medium supplemented with epidermal growth factor (EGF) at 0.25 ng/mL, pituitary extract (PE) at 25 μg/mL and gentamycin (25 μg/mL) for 24 h and were used at the 3rd passage. For cytotoxicity testing, pre-incubated NHEK were given fresh culture medium containing a specific concentration of test compound and incubated for 24 h. After a medium change at same test concentration cells were incubated a further 24 h until viability was determined. Test results are given in Table B2 and illustrated in FIG. 10.

NF-κB = NF-κB activity in NIH3T3-KBF-Luc cells stimulated with TNFα (luciferase); conditions: for % Activation: TNFα alone = 100
Method: NIH3T3-KBF-Luc cells were stably transfected with the KBF-Luc plasmid (Sancho (2003) Mol Pharmacol 63:429-438), which contains three copies of NF-κB binding site (from major histocompatibility complex promoter), fused to a minimal simian virus 40 promoter driving the luciferase gene. Cells (1×10^4 for NIH3T3-KBF-Luc) were seeded the day before the assay on 96-well plate. Then the cells were treated with the test substances for 15 min and then stimulated with 30 ng/ml of TNFα. After 6 h, the cells were washed twice with PBS and lysed in 50 μl lysis buffer containing 25 mM Tris-phosphate (pH 7.8), 8 mM MgCl2, 1 mM DTT, 1% Triton X-100, and 7% glycerol during 15 min at RT in a horizontal shaker. Luciferase activity was measured using a GloMax 96 microplate luminometer (Promega) following the instructions of the luciferase assay kit (Promega, Madison, Wis., USA). […] The experiments for each concentration of the test items were done in triplicate wells.

HaCaT cells = assay: Glucose uptake (2-NBDG) in HaCaT keratinocytes; design: key to Measure 1 / Measure 2 / Measure 3 / Mean: total green object integrated intensity, GCU×μm2×Well; conditions: +2NBDG 50 μM, 24 h; for Measure 1 / Measure 2 / Measure 3: HaCaT cells, fluorescence; for RFU specific: mean minus control; for Mean: mean of triplicate measurements; for % Glucose uptake: Rosiglitazone 80 μM = 100%
Method: HaCaT cells (5×10^4) were seeded in 96-well black plates and incubated for 24 h. Then, medium was removed and the cells cultivated in OptiMEM, labeled with 50 μM 2-NBDG (2-[N-(7-nitrobenz-2-oxa-1,3-diazol-4-yl) amino]-2-deoxy-D-glucose and treated with the test substances or the positive control, Rosiglitazone, for 24 h. Medium was removed and the wells were carefully washed with PBS and incubated in PBS (100l/well). Finally the fluorescence was measured using the Incucyte FLR software, the data were analyzed by the total green object integrated intensity (GCU×μm2×Well) of the imaging system IncuCyte HD (Essen BioScience). The fluorescence of Rosiglitazone is taken as 100% of glucose uptake, and the glucose uptake was calculated as (% Glucose uptake)=100(T−B)/(R−B), where T (treated) is the fluorescence of test substance-treated cells, B (Basal) is the fluorescence of 2-NBDG cells and […] is the fluorescence of cells treated with Rosiglitazone.

STAT3 = STAT3 activity in HeLa-STAT3-luc cells stimulated with IFN-γ (luciferase); conditions: for Mean: mean of triplicate wells
Method: HeLa-STAT3-luc cells were stably transfected with the plasmid 4xM67 pTATA TK-Luc. Cells (20×10^3 cells/ml) were seeded 96-well plate the day before the assay. Then the cells were treated with the test substances for 15 min and then stimulated with IFN-γ 25 IU/ml. After 6 h, the cells were washed twice with PBS and lysed in 50 μl lysis buffer containing 25 mM Tris-phosphate (pH 7.8), 8 mM MgCl2, 1 mM DTT, 1% Triton X-100, and 7% glycerol during 15 min at RT in a horizontal shaker. Luciferase activity was measured using GloMax 96 microplate luminometer (Promega) following the instructions of the luciferase assay kit (Promega, Madison, Wis., USA). […] The experiments for each concentration of the test items were done in triplicate wells.

O=C1CC(c2ccc(O)cc2)Oc2cc(O)cc(O)c21 (stereo not drawn) [Naringenin, 4′,5,7-Trihydroxyflavanone]
Viability (%) Mean ([1]; 1 μM): 95%
Viability (%) ([1]; 1 μM): 96% and 95%
Viability (%) Mean ([1]; 2.5 μM): 93%
Viability (%) ([1]; 2.5 μM): 95% and 92%
Viability (%) Mean ([1]; 5 μM): 92%
Viability (%) ([1]; 5 μM): 93% and 91%
Viability (%) Mean ([1]; 10 μM): 95%
Viability (%) ([1]; 10 μM): 95%
Viability (%) Mean ([1]; 25 μM): 92%
Viability (%) ([1]; 25 μM): 89% and 94%
Viability (%) Mean ([1]; 50 μM): 89%
Viability (%) ([1]; 50 μM): 85% and 94%
Morph. obs. ([1]; 100 μM): +/−, *
Viability (%) Mean ([1]; 100 μM): 75%
Viability (%) ([1]; 100 μM): 76% and 74%
Morph. obs. ([1]; 250 μM): +/−, *
Viability (%) Mean ([1]; 250 μM): 47%
Viability (%) Mean ([1]; 250 μM, listed as naringenin): about 50%
Viability (%) ([1]; 250 μM): 48% and 47%

Chrysin-5-O-α-L-rhamnoside [CR2]
RLU 1 (NF-κB; 10 μM + 30 ng/ml TNFα): 156600 RLU
RLU 2 (NF-κB; 10 μM + 30 ng/ml TNFα): 160140 RLU
RLU 3 (NF-κB; 10 μM + 30 ng/ml TNFα): 151070 RLU
RLU MEAN (NF-κB; 10 μM + 30 ng/ml TNFα): 155937 RLU
RLU specific (NF-κB; 10 μM + 30 ng/ml TNFα): 132573 RLU
% Activation (NF-κB; 10 μM + 30 ng/ml TNFα): 101.7%
RLU 1 (NF-κB; 25 μM + 30 ng/ml TNFα): 170390 RLU
RLU 2 (NF-κB; 25 μM + 30 ng/ml TNFα): 179220 RLU
RLU 3 (NF-κB; 25 μM + 30 ng/ml TNFα): 163490 RLU
RLU MEAN (NF-κB; 25 μM + 30 ng/ml TNFα): 171033 RLU
RLU specific (NF-κB; 25 μM + 30 ng/ml TNFα): 147670 RLU
% Activation (NF-κB; 25 μM + 30 ng/ml TNFα): 113.2%
Measure 1 (HaCaT cells; 25 μM test substance): 427937
Measure 2 (HaCaT cells; 25 μM test substance): 431593
Measure 3 (HaCaT cells; 25 μM test substance): 390512
RFU specific (HaCaT cells; 25 μM test substance): 410367 RFU
Mean (HaCaT cells; 25 μM test substance): 416681
% Glucose uptake (HaCaT cells; 25 μM test substance): 47.2%
Measure 1 (HaCaT cells; 50 μM test substance): 771478
Measure 2 (HaCaT cells; 50 μM test substance): 1100390
Measure 3 (HaCaT cells; 50 μM test substance): 923151
RFU specific (HaCaT cells; 50 μM test substance): 925359 RFU
Mean (HaCaT cells; 50 μM test substance): 931673
% Glucose uptake (HaCaT cells; 50 μM test substance): 106.5%

Diosmetin-5-O-α-L-rhamnoside [DR2]
RLU 1 (NF-κB; 10 μM + 30 ng/ml TNFα): 211150 RLU
RLU 2 (NF-κB; 10 μM + 30 ng/ml TNFα): 215320 RLU
RLU 3 (NF-κB; 10 μM + 30 ng/ml TNFα): 213260 RLU
RLU MEAN (NF-κB; 10 μM + 30 ng/ml TNFα): 213243 RLU
RLU specific (NF-κB; 10 μM + 30 ng/ml TNFα): 189880 RLU
% Activation (NF-κB; 10 μM + 30 ng/ml TNFα): 145.6%
RLU 1 (NF-κB; 25 μM + 30 ng/ml TNFα): 245900 RLU
RLU 2 (NF-κB; 25 μM + 30 ng/ml TNFα): 241550 RLU
RLU 3 (NF-κB; 25 μM + 30 ng/ml TNFα): 234880 RLU
RLU MEAN (NF-κB; 25 μM + 30 ng/ml TNFα): 240777 RLU
RLU specific (NF-κB; 25 μM + 30 ng/ml TNFα): 217413 RLU
% Activation (NF-κB; 25 μM + 30 ng/ml TNFα): 166.7%
RLU 1 (STAT3; 25 μM test substance, +IFNγ 25 U/ml, HeLa-STAT3-luc cells, replicate well 1): 12137 RLU
RLU 2 (STAT3; 25 μM test substance, +IFNγ 25 U/ml, HeLa-STAT3-luc cells, replicate well 2): 10269 RLU
RLU 3 (STAT3; 25 μM test substance, +IFNγ 25 U/ml, HeLa-STAT3-luc cells, replicate well 3): 9275 RLU
RLU specific (STAT3; 25 μM test substance, +IFNγ 25 U/ml, mean minus control): 8553 RLU
Mean (STAT3; 25 μM test substance, +IFNγ 25 U/ml): 10560 RLU
% Activation (STAT3; 25 μM test substance, +IFNγ 25 U/ml, IFNγ alone = 100% activation): 68.33%
RLU 1 (STAT3; 50 μM test substance, +IFNγ 25 U/ml, HeLa-STAT3-luc cells, replicate well 1): 13005 RLU
RLU 2 (STAT3; 50 μM test substance, +IFNγ 25 U/ml, HeLa-STAT3-luc cells, replicate well 2): 10547 RLU
RLU 3 (STAT3; 50 μM test substance, +IFNγ 25 U/ml, HeLa-STAT3-luc cells, replicate well 3): 10143 RLU
RLU specific (STAT3; 50 μM test substance, +IFNγ 25 U/ml, mean minus control): 9224 RLU
Mean (STAT3; 50 μM test substance, +IFNγ 25 U/ml): 11232 RLU
% Activation (STAT3; 50 μM test substance, +IFNγ 25 U/ml, IFNγ alone = 100% activation): 73.69%
Measure 1 (HaCaT cells; 25 μM test substance): 632398
Measure 2 (HaCaT cells; 25 μM test substance): 940240
Measure 3 (HaCaT cells; 25 μM test substance): 197738
RFU specific (HaCaT cells; 25 μM test substance): 583811 RFU
Mean (HaCaT cells; 25 μM test substance): 590125
% Glucose uptake (HaCaT cells; 25 μM test substance): 67.2%
Measure 1 (HaCaT cells; 50 μM test substance): 2958363
Measure 2 (HaCaT cells; 50 μM test substance): 1297231
Measure 3 (HaCaT cells; 50 μM test substance): 2493030
RFU specific (HaCaT cells; 50 μM test substance): 2243227 RFU
Mean (HaCaT cells; 50 μM test substance): 2249541
% Glucose uptake (HaCaT cells; 50 μM test substance): 258.2%

Silibinin-5-O-α-L-rhamnoside [SR1]
RLU 1 (NF-κB; 10 μM + 30 ng/ml TNFα): 269710 RLU
RLU 2 (NF-κB; 10 μM + 30 ng/ml TNFα): 262180 RLU
RLU 3 (NF-κB; 10 μM + 30 ng/ml TNFα): 254090 RLU
RLU MEAN (NF-κB; 10 μM + 30 ng/ml TNFα): 261993 RLU
RLU specific (NF-κB; 10 μM + 30 ng/ml TNFα): 229147 RLU
% Activation (NF-κB; 10 μM + 30 ng/ml TNFα): 154.8%
RLU 2 (NF-κB; 25 μM + 30 ng/ml TNFα): 171280 RLU
RLU 3 (NF-κB; 25 μM + 30 ng/ml TNFα): 171730 RLU
RLU MEAN (NF-κB; 25 μM + 30 ng/ml TNFα): 172650 RLU
RLU specific (NF-κB; 25 μM + 30 ng/ml TNFα): 139803 RLU
% Activation (NF-κB; 25 μM + 30 ng/ml TNFα): 94.4%
RLU 1 (STAT3; 25 μM + IFNγ 25 U/ml): 9507 RLU
RLU 2 (STAT3; 25 μM + IFNγ 25 U/ml): 11653 RLU
RLU 3 (STAT3; 25 μM + IFNγ 25 U/ml): 10203 RLU
RLU MEAN (STAT3; 25 μM + IFNγ 25 U/ml): 10454 RLU
RLU specific (STAT3; 25 μM + IFNγ 25 U/ml): 8447 RLU
% Activation (STAT3; 25 μM + IFNγ 25 U/ml, IFNγ alone = 100): 92.24%
RLU 1 (STAT3; 50 μM + IFNγ 25 U/ml): 10090 RLU
RLU 2 (STAT3; 50 μM + IFNγ 25 U/ml): 11355 RLU
RLU 3 (STAT3; 50 μM + IFNγ 25 U/ml): 10938 RLU
RLU MEAN (STAT3; 50 μM + IFNγ 25 U/ml): 10794 RLU
RLU specific (STAT3; 50 μM + IFNγ 25 U/ml): 8787 RLU
% Activation (STAT3; 50 μM + IFNγ 25 U/ml, IFNγ alone = 100): 95.95%
